Entries after “also recorded” stand apart in the source; their conditions may differ.
Legend:
[1] = system: OGD cells (retinal ganglion cells); assay: Increase in survival of OGD cells at fixed concentrations (similar assay); format: cell-based, rat
[2] = system: Oxygen/Glucose Deprived RGCs (retinal ganglion cells); assay: Protection of oxygen/glucose deprived (OGD) retinal ganglion cells, EC50; settings: overall judgement
Description: Each compound was added to control cells and to cells deprived of oxygen and glucose for the time period from 30 minutes prior to OGD, during OGD, and for 24 and 48 hours after OGD.
RGCs from postnatal day 8 (P8) Sprague-Dawley rats were purified as previously described (Barres et al., 1988; Meyer-Franke et al., 1995). Purified retinal ganglion cells were plated onto tissue culture plastic precoated with poly-D-lysine and merosin, and cultured in serum-free Neurobasal medium (Gibco) containing various supplements.
Approximately 5,000 purified RGCs were cultured in 96-well plates (Falcon), precoated with poly-D-lysine (PDL, 70 kD, 10 mg/ml; Sigma) and merosin (2 mg/ml; Gibco). The RGCs were cultured in serum-free Neurobasal medium (Brewer et al., 1993; Gibco) containing Sato-Bottenstein and B27 (Gibco) supplement, insulin (Sigma, 5 mg/ml), brain-derived neurotrophic factor (BDNF, 25 ng/ml; Preprotech), ciliary neurotrophic factor (CNTF, 20 ng/ml; Preprotech) and forskolin (10 mM, Sigma). The percentage of surviving cells was assessed at 3, 7, and 14 days by the MTT assay.
Retinal ganglion cells were grown in 96-well plates for 5 days in serum-free medium as described above. On the sixth day cells were washed three times in a salt solution, e.g. Earle's balanced salt solution (EBSS, Gibco), containing glucose for control cells, and lacking glucose for test cells (oxygen/glucose-deprived cells). Control cells were further incubated in a 5% CO2 incubator while OGD cells were deprived of oxygen in an anaerobic chamber (for 3 hours). Test compounds were added to control cells and OGD cells for the time period from 30 minutes prior to OGD, during OGD, and for 24 and 48 hours after OGD.
After 3 hours OGD, control and test cells were transferred to growth medium with glucose and cultured an additional 48 hours in a 5% CO2 incubator, followed by a determination of cell viability using MTT, propidium iodide and annexin assays.
For the cell viability assay, MTT was added to culture and incubated at 37° C. for 1 hr. […] Viable and dead cells are counted by bright field microscopy at various times, e.g. 24, 48, or 72 hours after oxygen/glucose and/or growth factor deprivation. All values are reported as the mean (average) +/− the standard error of the mean (SEM) for at least three replicate cultures.

[3] = system: Oxygen/Glucose Deprived Cardiac Myocytes; assay: Protection of oxygen/glucose deprived cardiac myocytes; format: cell-based
Description: The hypoxic cardiac myocyte (CM) has been used as a simplified model of myocardial ischemia. In the present study, cultures of CM's were deprived of oxygen and glucose for 8 hours, then also exposed to 24-48 hours reoxygenation. It is known that reperfusion of the damaged areas can be one of the major mechanisms of myocardial cellular injury. […] Cell survival was quantitated as described above.

[4] = system: rat middle cerebral artery occlusion (MCAO) model of focal ischemia; assay: MCAO in vivo stroke model: ischemic, infarct and edema volumes; settings: for Reducing post-ischemic damage (in words): rats; for % Protection, Cortical infarct volume / % Protection, Cortical penumbra / % Protection, Edema / % Protection, Subcortical infarct volume / % Protection, Subcortical penumbra / % Protection, Total infarct volume / % Protection, Total ischemic volume: rat
Description: Compounds were administered by either an IV (intravenous) or ICV (intracerebroventricular) route in the MCAO model, described above and in Example 18. The extent of ischemic damage in the absence and presence of compound was assessed by visualization of coronal brain slices. Conversion of 2,3,5-triphenyltetrazolium chloride (TTC) to formazan in normal tissue produces a red color. Unstained areas (white) constitute the infarct, whereas pink areas between white (infarction) and red stained areas (normal brain) define the ischemia penumbra. Preliminary studies confirmed that tissues stained pink contained mixed populations of living and dead cells.
Results are also illustrated in FIGS. 2-3 for ICV administration and FIGS. 4-5 for IV administration.
Adult male Wistar rats weighing 310-380 g were used. Animals were fasted overnight but allowed free access to water. Anesthesia was induced and maintained with 3% isoflurane in […]. Systemic blood pressure was recorded before, during and after middle cerebral artery occlusion (MCAO) and immediately before administering the test compound. Subjects received test compound SNX 912, 5 mg/kg ICV pre-MCAO, or 25 mg/kg IV immediately following reperfusion, after two hours MCAO, as compared to control subjects, which received deionized water. Temperature was controlled and recorded before, during and following reperfusion. After reperfusion, temperature was measured every hour for 4 hrs post-reperfusion.
All animals were subjected to 2 hr of MCAO using the intraluminal filament technique of Koizume et al. (1986) as modified by Zhao et al. (1994). A midline surgical incision was made to expose the right common, external and internal carotid arteries. The common cartotid, external carotid and occipital arteries were tightly ligated, and the internal carotid artery was temporarily closed with a microvascular clip. A small incision was made in the common carotid artery and a nylon monofilament was inserted into the internal carotid artery through the common carotid artery. The filament was then carefully advanced 19 mm cephalad to occlude the middle cerebral artery at its site of origin within the Circle of Willis. […] After 2 hr of MCAO, the animals were re-anesthetized with 1.5% halothane, and the occlude filament was withdrawn to allow reperfusion.
Because MCAO by the intraluminal filament technique can give rise to intra- and post-ischemia hyperthermia, rectal temperature was controlled by external heating and cooling for 6 hrs after initiating MCAO. Rectal temperature was maintained at 37.5+/−0.5° C.
Animals were killed 24 hr post-reperfusion by CO2 asphyxiation. Following asphyxiation, the brains were quickly removed and chilled in ice cold 0.9% saline for 10 min. To visualize the extent of ischemic damage, seven 2 mm thick coronal slices were cut from each brain with a tissue slicer beginning with 1 mm posterior to the anterior pole. The slices were immersed in a 0.9% saline solution containing 1.0% 2,3,5-tripheyltetrazolim chloride (TTC) and incubated at 37° C. for 30 minutes, and observed for the presence of formazan (red), which is produced by the reduction of TTC by endogenous dehydrogenase activity in normal living tissues.

[5] = 8 hrs OGD / 24 hrs reoxygenation
[6] = 8 hrs OGD / 48 hrs reoxygenation
[7] = IV (25 mg/kg) immediately following reperfusion after 2 h MCAO

In the case of `Nc1cccc2[nH]c(Cc3nc4ccccc4[nH]3)nc12` [SNX 912, 2-(benzimidazol-2′-yl)methyl-4-amino benzimidazole], the “Percent Increase in Survival over OGD Control Cells” value (“Percent Increase in Survival” for short) ([1]; Concn 0.001 μM) is reported as “++ (50%-100% increase)”, the “Percent Increase in Survival” value ([1]; Concn 0.01 μM) is reported as “++ (50%-100% increase)” and the “Percent Increase in Survival” value ([1]; Concn 0.1 μM) is reported as “++ (50%-100% increase)”. The “Percent Increase in Survival” value ([1]; Concn 1 μM) was “+++ (>100% increase)”, the “Percent Increase in Survival” value ([1]; Concn 10 μM) was “+++ (>100% increase)” and the “Effectiveness in protecting OGD RGCs (in words, from Tables 5 and 6)” value [2] was “more effective overall than the unsubstituted compound”. The EC50 [3, 5] was 310 nM, the “TI (therapeutic index)” value [3, 5] was over 30 and the EC50 [3, 6] was 55 nM. For the same compound, the “TI (therapeutic index)” value [3, 6] was over 200, the “Protection of cardiac myocytes from apoptotic cell death (in words)” value ([3]; compared to untreated OGD cells, dose dependent, nanomolar concentrations) was “protected the cardiac myocytes from apoptotic cell death; also recorded: effective” and the “Reducing post-ischemic damage (in words)” value ([4]; 5 mg/kg ICV) was “effective”. For the same compound, the “Reducing post-ischemic damage (in words)” value ([4]; 25 mg/kg IV) was “effective”, the “% Protection, Cortical infarct volume” value ([4]; ICV (5 mg/kg) pre-MCAO) was 76% and the “% Protection, Cortical penumbra” value ([4]; ICV (5 mg/kg) pre-MCAO) was 30%. The “% Protection, Edema” value ([4]; ICV (5 mg/kg) pre-MCAO) was 80%, the “% Protection, Subcortical infarct volume” value ([4]; ICV (5 mg/kg) pre-MCAO) was 75% and the “% Protection, Subcortical penumbra” value ([4]; ICV (5 mg/kg) pre-MCAO) was 7%. The “% Protection, Total infarct volume” value ([4]; ICV (5 mg/kg) pre-MCAO) was 76%, the “% Protection, Total ischemic volume” value ([4]; ICV (5 mg/kg) pre-MCAO) was 47% and the “% Protection, Cortical infarct volume” value [4, 7] was 53%. For the same compound, the “% Protection, Cortical penumbra” value [4, 7] was 10%, the “% Protection, Edema” value [4, 7] was 26% and the “% Protection, Subcortical infarct volume” value [4, 7] was 55%. The “% Protection, Subcortical penumbra” value [4, 7] was 18%, the “% Protection, Total infarct volume” value [4, 7] was 55% and the “% Protection, Total ischemic volume” value [4, 7] was 32%.

— patent US6541486B1, “Bis-benzimidazole compounds and analogs thereof for inhibiting cell death” (Elan Pharma International Ltd., priority 1999, dated 2003)
